# According to patent US20240400553A1, “AMINE BASED MATRIPTASE 2 INHIBITORS AND USES THEREOF” (Disc Medicine, Inc., priority 2023, published 2024):
# Target: T1, Human Recombinant Matriptase 2 (Homo sapiens, UniProt Q8IU80)
# T1 construct: made in house
# T1 sequence (Q8IU80 1-811): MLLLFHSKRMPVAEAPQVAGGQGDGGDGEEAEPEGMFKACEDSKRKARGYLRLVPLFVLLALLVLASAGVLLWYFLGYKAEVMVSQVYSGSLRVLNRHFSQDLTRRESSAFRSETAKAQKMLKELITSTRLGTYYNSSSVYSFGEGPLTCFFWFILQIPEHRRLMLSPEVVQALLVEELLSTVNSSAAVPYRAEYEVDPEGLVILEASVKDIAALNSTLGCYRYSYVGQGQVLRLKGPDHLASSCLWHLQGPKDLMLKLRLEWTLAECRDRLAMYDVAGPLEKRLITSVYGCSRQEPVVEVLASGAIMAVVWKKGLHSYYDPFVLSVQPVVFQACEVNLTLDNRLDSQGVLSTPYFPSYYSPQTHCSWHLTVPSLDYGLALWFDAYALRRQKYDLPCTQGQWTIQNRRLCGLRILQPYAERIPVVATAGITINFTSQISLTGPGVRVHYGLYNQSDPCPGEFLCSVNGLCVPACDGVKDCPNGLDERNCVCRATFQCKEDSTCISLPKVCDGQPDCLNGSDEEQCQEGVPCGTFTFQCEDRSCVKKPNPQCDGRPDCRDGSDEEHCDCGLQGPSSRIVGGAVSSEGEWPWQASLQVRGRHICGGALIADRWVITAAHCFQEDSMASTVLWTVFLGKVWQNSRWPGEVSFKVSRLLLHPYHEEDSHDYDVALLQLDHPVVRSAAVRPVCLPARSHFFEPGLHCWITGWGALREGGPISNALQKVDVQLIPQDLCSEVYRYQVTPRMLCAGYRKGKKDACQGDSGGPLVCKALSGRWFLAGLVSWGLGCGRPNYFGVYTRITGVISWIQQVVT
# Assay: Matriptase 2 inhibition, fluorescence based assay (Method I)
# Format: biochemical
# Settings: Table A; Ki of Matriptase-2 given as class symbols; read-out: Mat-2 Ki
# In short: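 Fluorogenic readout (Ex 360/Em 480 nm) taken 60 min after adding 62 μM Boc-Gln-Ala-Arg-AMC, following 30-min enzyme–compound preincubation at 25 °C. Conditions: 3.5 nM in-house enzyme, pH 7.5 Tris/NaCl/gelatin buffer, 1% DMSO; percent inhibition versus concentration fitted by variable-slope sigmoidal regression.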
row,Structure (SMILES),Ki [nM]
1,"NCc1ccc2cc(-c3cnn[nH]3)n(Cc3cc(NS(=O)(=O)Cc4ccccc4)cc4ccccc34)c2n1 [Compound 350, N-(4-((6-(aminomethyl)-2-(1H-1,2,3-triazol-5-yl)-1H-pyrrolo[2,3-b]pyridin-1-yl)methyl)naphthalen-2-yl)-1-phenylmethanesulfonamide]",100 to 500
2,"NCc1ccc2cc(-c3noc(=O)[nH]3)n(Cc3cc(NS(=O)(=O)Cc4ccccc4)cc4ccccc34)c2n1 [Compound 353, N-(4-((6-(aminomethyl)-2-(5-hydroxy-1,2,4-oxadiazol-3-yl)-1H-pyrrolo[2,3-b]pyridin-1-yl)methyl)naphthalen-2-yl)-1-phenylmethanesulfonamide]",100 to 500
3,"CCOC(=O)c1cc2ccc(CNC(=O)c3ccccc3COC(C)=O)nc2n1Cc1cc(NS(=O)(=O)Cc2ccccc2)cc2ccccc12 [Compound 358, ethyl 6-[({2-[(acetyl-oxy)methyl]phenyl}-formamido)methyl]-1-{[3-(phenylmethane-sulfonamido)naphthalen-1-yl]methyl}-1H-pyr-rolo[2,3-b]pyridine-2-carboxylate]",500 to 3000
4,"Cc1oc(=O)oc1COC(=O)NCc1ccc2cc(C(=O)O)n(Cc3cc(NS(=O)(=O)Cc4ccccc4)cc4ccccc34)c2n1 [Compound 359, 6-(((((5-methyl-2-oxo-1,3-dioxol-4-yl)methoxy)carbonyl)amino)methyl)-1-((3-((phenylmethyl)sulfonamido)naphthalen-1-yl)methyl)-1H-pyrrolo[2,3-b]pyridine-2-carboxylic acid]",100 to 500
5,"NCc1ccc2cc(C(=O)O)n(Cc3cc(NS(=O)(=O)Cc4ccccc4)cc4cccc(O)c34)c2n1 [Compound 360, 6-(aminomethyl)-1-((8-hydroxy-3-((phenylmethyl)sulfonamido)naphthalen-1-yl)methyl)-1H-pyrrolo[2,3-b]pyridine-2-carboxylic acid]",100 to 500
6,COc1ccc2c(Cn3c(C(=O)O)cc4ccc(CN)nc43)cc(NS(=O)(=O)Cc3ccccc3)cc2c1 [Compound 361],100 to 500
7,NCc1ccc2cc(CO)n(Cc3cc(NS(=O)(=O)CC4CCNCC4)cc4ccccc34)c2n1 [Compound 362],100 to 500
8,"NCc1ccc2cc(CO)n(Cc3cc(NS(=O)(=O)Cc4ccccc4)cc4ccccc34)c2n1 [Compound 365, N-(4-((6-(aminomethyl)-2-(hydroxymethyl)-1H-pyrrolo[2,3-b]pyridin-1-yl)methyl)naphthalen-2-yl)-1-phenylmethanesulfonamide]",500 to 3000
9,"NCc1ccc2cc(C(=O)Nc3nnn[nH]3)n(Cc3cc(NS(=O)(=O)Cc4ccccc4)cc4ccccc34)c2c1 [Compound 372, 6-(aminomethyl)-1-((3-((phenylmethyl)sulfonamido)naphthalen-1-yl)methyl)-N-(1H-tetrazol-5-yl)-1H-indole-2-carboxamide]",100 to 500
10,"C[C@H](c1ccccc1)S(=O)(=O)Nc1cc(Cn2c(C(=O)OCC3CCN(C)CC3)cc3ccc(CN)cc32)c2ccccc2c1 [Compound 378, (1-methylpiperidin-4-yl)-methyl 6-(aminomethyl)-1-({3-[(1R)-1-phenyl-ethane-sulfonamido]-naphthalen-1-yl}methyl)-1H-indole-2-carboxylate]",≤ 100
11,"CN1CCC(COC(=O)c2cc3ccc(CN)cc3n2Cc2cc(NS(=O)(=O)Cc3cccs3)cc3ccccc23)CC1 [Compound 379, (1-methylpiperidin-4-yl)-methyl 6-(aminomethyl)-1-({3-[(thiophen-2-yl)-methanesulfonamido]-naphthalen-1-yl}meth-yl)-1H-indole-2-carbox-ylate]",≤ 100
12,"Cn1ccnc1COC(=O)c1cc2ccc(CN)cc2n1Cc1cc(NS(=O)(=O)Cc2ccsc2)cc2ccccc12 [Compound 381, (1-methyl-1H-imidazol-2-yl)methyl 6-(amino-methyl)-1-({3-[(thio-phen-3-yl)methanesulfon-amido]naphthalen-1-yl}-methyl)-1H-indole-2-carboxylate]",≤ 100
13,"Cn1ccnc1COC(=O)c1cc2ccc(CN)cc2n1Cc1cc(NS(=O)(=O)Cc2ccccc2)cc2ccccc12 [Compound 383, (1-methyl-1H-imidazol-2-yl)methyl 6-(amino-methyl)-1-{[3-(phenyl-methanesulfonamido)-naphthalen-1-yl]meth-yl}-1H-indole-2-carbox-ylate]",≤ 100
14,"CN(C)CCCCOC(=O)c1cc2ccc(CN)cc2n1Cc1cc(NS(=O)(=O)Cc2ccccc2)cc2ccccc12 [Compound 384, 4-(dimethylamino)butyl 6-(aminomethyl)-1-{[3-(phenylmethanesulfon-amido)naphthalen-1-yl]-methyl}-1H-indole-2-carboxylate]",100 to 500
15,"CC(C)(C)n1cncc1COC(=O)c1cc2ccc(CN)cc2n1Cc1cc(NS(=O)(=O)Cc2ccsc2)cc2ccccc12 [Compound 385, (1-tert-butyl-1H-imid-azol-5-yl)methyl 6-(aminomethyl)-1-({3-[(thiophen-3-yl)methane-sulfonamido]naphthalen-1-yl}methyl)-1H-indole-2-carboxylate]",100 to 500
16,"CC(C)(C)n1cncc1COC(=O)c1cc2ccc(CN)cc2n1Cc1cc(NS(=O)(=O)Cc2ccccc2)cc2ccccc12 [Compound 386, (1-tert-butyl-1H-imid-azol-5-yl)methyl 6-(aminomethyl)-1-{[3-(phenylmethanesulfon-amido)naphthalen-1-yl]-methyl}-1H-indole-2-carboxylate]",100 to 500

# Results, then the molecule that gave them:
row,Ki [nM],Structure (SMILES)
1,≤ 100,NCc1ccc2cc(-c3ccn[nH]3)n(Cc3cc(NS(=O)(=O)Cc4ccccc4)cc4ccccc34)c2n1 [Compound 351]
2,≤ 100,NCc1ccc2cc(-c3ncn[nH]3)n(Cc3cc(NS(=O)(=O)Cc4ccccc4)cc4ccccc34)c2n1 [Compound 352]
3,≤ 100,"NCc1ccc2cc(-c3nnn[nH]3)n(Cc3cc(NS(=O)(=O)Cc4ccccc4)cc4ccccc34)c2n1 [Compound 366, N-(4-((6-(aminomethyl)-2-(1H-tetrazol-5-yl)-1H-pyrrolo[2,3-b]pyridin-1-yl)methyl)naphthalen-2-yl)-1-phenylmethanesulfonamide]"
4,≤ 100,"NCc1ccc2cc(C(=O)O)n(Cc3cc(NS(=O)(=O)Cc4ccccc4)cc4ccccc34)c2c1 [Compound 370, 6-(aminomethyl)-1-((3-((phenylmethyl)sulfonamido)naphthalen-1-yl)methyl)-1H-indole-2-carboxylic acid]"
5,≤ 100,"CN1CCC(OC(=O)c2cc3ccc(CN)cc3n2Cc2cc(NS(=O)(=O)Cc3ccccc3)cc3ccccc23)CC1 [Compound 371, 1-methylpiperidin-4-yl 6-(aminomethyl)-1-((3-((phenylmethyl)sulfonamido)naphthalen-1-yl)methyl)-1H-indole-2-carboxylate]"
6,≤ 100,"Cc1cccc(C)c1CS(=O)(=O)Nc1cc(Cn2c(C(=O)NCCC3CCN(C)CC3)cc3ccc(CN)cc32)c2ccccc2c1 [Compound 373, 6-(aminomethyl)-1-({3-[(2,6-dimethylphenyl)-methanesulfonamido]-naphthalen-1-yl}methyl)-N-[2-(1-methylpiperidin-4-yl)ethyl]-1H-indole-2-carboxamide]"
7,≤ 100,"CN1CCC(COC(=O)c2cc3ccc(CN)cc3n2Cc2cc(NS(=O)(=O)Cc3ccsc3)cc3ccccc23)CC1 [Compound 374, (1-methylpiperidin-4-yl)-methyl 6-(aminomethyl)-1-({3-[(thiophen-3-yl)-methanesulfonamido]-naphthalen-1-yl}methyl)-1H-indole-2-carboxylate]"
8,≤ 100,"Cc1cccc(C)c1CS(=O)(=O)Nc1cc(Cn2c(C(=O)OCC3CCN(C)CC3)cc3ccc(CN)cc32)c2ccccc2c1 [Compound 375, (1-methylpiperidin-4-yl)-methyl 6-(aminomethyl)-1-({3-[(2,6-dimethyl-phenyl)methanesulfon-amido)naphthalen-1-yl}-methyl)-1H-indole-2-carboxylate]"
9,≤ 100,"CN1CCC(COC(=O)c2cc3ccc(CN)cc3n2Cc2cc(NS(=O)(=O)Cc3ccccc3)cc3ccccc23)CC1 [Compound 376, (1-methylpiperidin-4-yl)-methyl 6-(aminomethyl)-1-1{[3-(phenylmethane-sulfonamido)naphthalen-1-yl]methyl}-1H-indole-2-carboxylate]"
10,≤ 100,"Cc1cccc(C)c1CS(=O)(=O)Nc1cc(Cn2c(C(=O)OCCC3CCN(C)CC3)cc3ccc(CN)cc32)c2ccccc2c1 [Compound 377, 2-(1-methylpiperidin-4-yl)ethyl 6-(aminometh-yl)-1-({3-[(2,6-dimethyl-phenyl)methanesulfon-amido]naphthalen-1-yl}-methyl)-1H-indole-2-carboxylate]"
